Structures are written as SMILES. Activity calls are given as the source filed them. No cut-off for these calls is given here.

One data set concerns THP-1. Briefly: Cytotoxicity against human THP1 cells up to 10 ug/ml after 48 hrs by neutral red assay. It counts as cell-based. The conditions noted are these: thp-1, 48 h.
Data set [1] has as its system HepG2. Briefly: Cytotoxicity against human HepG2 cells after 48 hrs by neutral red assay. The data set is classed as cell-based. The conditions noted are these: HepG2, 48 h.
For the next data set, the system named is Trypanosoma brucei. Kind of data set: Antimicrobial activity against trypamastigote stage of Trypanosoma brucei after 72 hrs by Alamar Blue assay. The data set is classed as functional, organism-based.
For data set [2], the system named is Leishmania donovani. Briefly: Antimicrobial activity against promastigote stage of Leishmania donovani infected in human THP1 cells after 72 hrs by Alamar Blue assay. It counts as functional, organism-based. The conditions noted are these: for IC90: THP-1; for IC50: thp-1. On the technique in general: The colour change of resazurin is a common sign of viable cells or microbes.

Data set [3] relates to Leishmania donovani. Briefly: Antimicrobial activity against promastigote stage of Leishmania donovani after 72 hrs by Alamar Blue assay. The settings on record: Leishmania donovani, 72 h; for IC50: read-out: IC50. It counts as functional, organism-based.
Data set [4] concerns LLC-PK1. Kind of data set: Cytotoxicity against pig LLC-PK1 cells after 48 hrs by neutral red assay. It counts as cell-based. The conditions noted are these: Sus scrofa, LLC-PK1, 48 h.
Data set [5] concerns Leishmania donovani. Kind of data set: Antimicrobial activity against axenic amastigote stage of Leishmania donovani after 72 hrs by Alamar Blue assay. It counts as functional, organism-based.
Data set [6] concerns Leishmania infantum. Briefly: Antimicrobial activity against promastigote stage of Leishmania infantum. It counts as functional, organism-based.
Data set [7] relates to Leishmania infantum. Briefly: Antimicrobial activity against amastigote stage of Leishmania infantum. The data set is classed as functional, organism-based.
The test system of a further data set is Trypanosoma cruzi. Kind of data set: Antimicrobial activity against epimastigote stage of Trypanosoma cruzi Y. It counts as functional, organism-based.
Data set [8] deals with HepG2. Kind of data set: Cytotoxicity against human HepG2 cells up to 25 ug/ml after 48 hrs by neutral red assay. The conditions noted are these: hepg2, 48 h. The data set is classed as cell-based.
The next data set relates to Vero. Briefly: Cytotoxicity against African green monkey Vero cells up to 25 ug/ml after 48 hrs by neutral red assay. It counts as cell-based. The settings on record: chlorocebus sabaeus.
Data set [9] deals with LLC-PK1. Kind of data set: Cytotoxicity against pig LLC-PK1 cells up to 25 ug/ml after 48 hrs by neutral red assay. It counts as cell-based, Sus scrofa. The conditions noted are these: llc-pk1, 48 h.
Data set [10] concerns Trypanosoma brucei brucei. Briefly: Antimicrobial activity against bloodstream form of Trypanosoma brucei brucei TC221. It counts as functional, organism-based.
The mark [11] stands for this setting: Leishmania donovani, 72 h, read-out: IC50.
Where [12] appears, read: Trypanosoma brucei, 72 h, read-out: IC50.

In the case of `O=C(c1ccc([N+](=O)[O-])s1)N1CCc2c([nH]c3ccccc23)C1`, the Activity result in the data set on THP-1 was “Non-toxic”. The IC50 (usually the concentration needed to halve the response being measured) in the data set on HepG2 [1] is 63.6 µM; in the data set with Trypanosoma brucei, “Not Active”; with Leishmania donovani [2], “Not Active”; in the data set on Leishmania donovani [3], 12.7 µM; with LLC-PK1 [4], 56 µM; in the data set with Leishmania donovani [5] (setting [11]), 62.8 µM. Besides, the IC90 result with Trypanosoma brucei and in the data set on Leishmania donovani [2] was “inactive” each time. The 90% effect concentration (IC90) (as a rule, the point of the concentration-response curve where the effect stands at 90%) with Leishmania donovani [3] was found to be 36.6 µM; in the data set on Leishmania donovani [5] (Leishmania donovani, 72 h) it was 107 µM.

In the case of `Cc1nccc2c1[nH]c1ccccc12` [HARMAN], the IC50 came out at 19.2 µM in the data set on Leishmania infantum [6], 19.2 µM with Leishmania donovani [3], 0.27 µM in the data set with Leishmania infantum [7] and 0.27 µM in the data set with Leishmania donovani [5] (setting [11]).

For `COc1ccc2c3c([nH]c2c1)C(C)=NCC3` [HARMALINE], the IC50 in the data set with Leishmania infantum [6] came out at 117 µM; in the data set on Leishmania donovani [3], 117 µM; in the data set with Leishmania infantum [7] it was 1.16 µM; in the data set on Leishmania donovani [5] (setting [11]) it was 1.16 µM.

The compound `CN1CCN(C(=O)c2cc3c4ccccc4n4c(=O)c5ccccc5c(n2)c34)CC1` showed an IC50 with Trypanosoma cruzi of 0.4 µM.

As to `O=C(c1ccc(-c2cc(C(F)(F)F)ccc2Cl)o1)N1CCc2c([nH]c3ccccc23)C1`, the Activity result in the data set with THP-1 is listed as “Non-toxic”. In addition, the IC50 with HepG2 [1] was 25.5 µM; in the data set on Trypanosoma brucei it was “Not Active”; in the data set with Leishmania donovani [2] it was “Not Active”; in the data set on Leishmania donovani [3], 39.6 µM; with Leishmania donovani [5] (setting [11]), 37.1 µM. For the same compound, the IC90 entry with Trypanosoma brucei and in the data set with Leishmania donovani [2] was “inactive” throughout. Besides, the IC90 in the data set on Leishmania donovani [3] worked out at 69.1 µM; in the data set on Leishmania donovani [5] (Leishmania donovani, 72 h), 76 µM.

`c1ccc2c(CN3CCc4c([nH]c5ccccc45)C3)c3ccccc3cc2c1`: the Activity result in the data set on HepG2 [8], with THP-1, with Vero and in the data set on LLC-PK1 [9] was “Non-toxic” in each case. The IC90 in the data set on Trypanosoma brucei (Trypanosoma brucei, 72 h) was 18.8 µM; in the data set on Leishmania donovani [3], 76 µM; with Leishmania donovani [5] (Leishmania donovani, 72 h) it was 104 µM. Moreover, the IC50 is 11 µM in the data set with Trypanosoma brucei (setting [12]), “Not Active” with Leishmania donovani [2], 16 µM with Leishmania donovani [3] and 80.4 µM in the data set on Leishmania donovani [5] (setting [11]). Further, the IC90 entry in the data set on Leishmania donovani [2] was “inactive”.

In the case of `O=[N+]([O-])c1ccc(CN2CCc3c([nH]c4ccccc34)C2)o1`, the Activity result in the data set on HepG2 [8], in the data set on THP-1, in the data set with Vero and in the data set on LLC-PK1 [9] was “Non-toxic” each time. Also, in the data set on Trypanosoma brucei (Trypanosoma brucei, 72 h), the IC90 was determined as 28.1 µM. The half-inhibitory concentration (IC50) is 1 µM in the data set with Trypanosoma brucei (setting [12]), “Not Active” in the data set with Leishmania donovani [2], 33.8 µM with Leishmania donovani [3] and 117 µM with Leishmania donovani [5] (setting [11]). For the same compound, the IC90 entry with Leishmania donovani [2] is “inactive”.

Turning to `Clc1ccc(CN2CCc3c([nH]c4ccccc34)C2)s1`, the Activity entry with HepG2 [8], in the data set with THP-1, with Vero and with LLC-PK1 [9] was “Non-toxic” in each case. Further, the IC90 was determined as 14.5 µM in the data set with Trypanosoma brucei (Trypanosoma brucei, 72 h) and 25.6 µM in the data set on Leishmania donovani [3]. Moreover, the half-maximal inhibitory concentration (IC50) with Trypanosoma brucei (setting [12]) was 8.9 µM; in the data set with Leishmania donovani [2] it was “Not Active”; with Leishmania donovani [3], 9.1 µM; in the data set on Leishmania donovani [5] it was “Not Active”. In addition, the IC90 result with Leishmania donovani [2] and in the data set with Leishmania donovani [5] was “inactive” in each case.

With `c1ccc2[nH]c(CN3CCc4c([nH]c5ccccc45)C3)nc2c1`, the Activity result with HepG2 [8], with THP-1, in the data set on Vero and in the data set with LLC-PK1 [9] was “Non-toxic” each time. In addition, the half-inhibitory concentration (IC50) with Trypanosoma brucei (setting [12]) is 29.7 µM; in the data set with Leishmania donovani [2], “Not Active”; with Leishmania donovani [3] it was 118 µM; in the data set on Leishmania donovani [5] it was “Not Active”. Besides, the IC90 result in the data set with Leishmania donovani [2] and with Leishmania donovani [5] was “inactive” each time.

On to `COc1ccc2c(c1)[nH]c1c(C)nccc12` [HARMINE], for which the half-inhibitory concentration (IC50) in the data set with Leishmania infantum [6] came out at 3.7 µM; in [10], 74 µM; in the data set with Trypanosoma brucei (setting [12]), 74 µM; in the data set on Leishmania donovani [3], 3.7 µM; in the data set on Leishmania infantum [7], 0.23 µM; in the data set with Leishmania donovani [5] (setting [11]), 0.23 µM.

These data come from ChEMBL document CHEMBL3352781, “Synthesis, antileishmanial and antitrypanosomal activities of N-substituted tetrahydro-β-carbolines” (Bioorg Med Chem Lett, 2014).
